Here are results for 11 molecules from US9422264B2, “Carbamate-substituted oxindole derivatives and use thereof for the treatment of vasopressin-dependent diseases” (AbbVie Deutschland GmbH & Co. KG, priority 2007, dated 2016).

The structures appear in SMILES notation. Structures can show the parent of a compound that is named as a salt. Some results are limits rather than exact numbers.

Data set [1] is described as follows: Determination of the microsomal half-life / microsomal clearance (human liver microsomes). It is filed as in vitro ADME. The settings on record: pH 7.4, 0.5 μM test substance. As for the experimental part: 5. Determination of the Microsomal Half-Life:
The metabolic stability of the compounds of the invention was determined in the following assay.
The test substances were incubated in a concentration of 0.5 μM as follows:
0.5 μM test substance are preincubated together with liver microsomes from different species (from rat, human or other species) (0.25 mg of microsomal protein/ml) in 0.05 M potassium phosphate buffer of pH 7.4 in microtiter plates at 37° C. for 5 min. The reaction is started by adding NADPH (1 mg/mL). After 0, 5, 10, 15, 20 and 30 min, 50 μl aliquots are removed, and the reaction is immediately stopped and cooled with the same volume of acetonitrile. The samples are frozen until analyzed. The remaining concentration of undegraded test substance is determined by MSMS. The half-life (T½) is determined from the gradient of the signal of test substance/unit time plot, it being possible to calculate the half-life of the test substance, assuming first order kinetics, from the decrease in the concentration of the compound with time. The microsomal clearance (mCl) is calculated from mCl=In2/T½/(content of microsomal protein in mg/ml)×1000 […] (modified from references: Di, The Society for Biomoleculur Screening, 2003, 453-462; Obach, DMD, 1999 vol. 27. N 11, 1350-1359).
Background: Liver microsomes are a subcellular fraction often used to study metabolism.

The target in data set [2] is human vasopressin V1a receptor (Homo sapiens, UniProt P37288). Put plainly: Vasopressin V1a receptor binding assay. As to conditions: selectivity quotient, human V1a versus human V1b.
Data set [3] deals with T1, human vasopressin V1b receptor (Homo sapiens, UniProt P47901).
T1 construct: expressed in transfected cells; host or cells: CHO-K1 (cell line hV1b_3H2_CHO)
T1 sequence (P47901 1-424): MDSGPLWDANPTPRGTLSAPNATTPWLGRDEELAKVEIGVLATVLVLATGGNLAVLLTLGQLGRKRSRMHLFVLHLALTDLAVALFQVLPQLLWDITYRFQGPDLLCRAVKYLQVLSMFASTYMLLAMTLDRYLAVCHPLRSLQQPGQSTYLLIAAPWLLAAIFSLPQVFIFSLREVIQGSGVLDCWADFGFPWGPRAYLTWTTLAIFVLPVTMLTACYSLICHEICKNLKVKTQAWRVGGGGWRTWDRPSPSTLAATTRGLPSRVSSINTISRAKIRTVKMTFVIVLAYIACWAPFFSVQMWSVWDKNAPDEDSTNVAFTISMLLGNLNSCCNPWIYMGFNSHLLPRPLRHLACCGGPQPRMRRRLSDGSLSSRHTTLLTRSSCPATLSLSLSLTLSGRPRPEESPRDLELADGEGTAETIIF
Put plainly: Vasopressin V1b receptor binding assay. As to conditions: read-out: Ki(h-V1b)*. As for the experimental part:
1. Vasopressin V1b Receptor Binding Assay:
The substance concentration was further diluted 1:5 in the assay mixture (2% DMSO in the mixture).
All determinations were carried out as triplicate determinations.

For data set [4], the target named is T2, recombinant human oxytocin receptors (Homo sapiens, UniProt P30559).
T2 construct: expressed in transfected cells; host or cells: HEK-293 (transient)
T2 sequence (P30559 1-389): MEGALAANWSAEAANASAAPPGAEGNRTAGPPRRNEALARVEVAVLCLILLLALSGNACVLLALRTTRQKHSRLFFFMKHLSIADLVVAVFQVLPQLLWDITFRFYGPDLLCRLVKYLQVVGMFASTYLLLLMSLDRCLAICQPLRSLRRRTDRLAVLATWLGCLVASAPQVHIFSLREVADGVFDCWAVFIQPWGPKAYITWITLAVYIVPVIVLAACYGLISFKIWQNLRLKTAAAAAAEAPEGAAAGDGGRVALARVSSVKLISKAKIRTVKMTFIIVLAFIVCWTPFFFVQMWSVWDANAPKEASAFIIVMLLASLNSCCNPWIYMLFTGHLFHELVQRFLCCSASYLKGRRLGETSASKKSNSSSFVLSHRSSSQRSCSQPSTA
As to the kind of experiment: Oxytocin receptor binding assay. The settings on record: selectivity quotient, human OT versus human V1b. As for the experimental part: 4. Oxytocin Receptor Binding Assay
Confluent HEK-293 cells with transiently expressing recombinant human oxytocin receptors were centrifuged at 750×g at room temperature for 5 minutes. The residue was taken up in ice-cold lysis buffer (50 mM Tris-HCl, 10% glycerol, pH 7.4 and Roche complete protease inhibitor) and subjected to an osmotic shock at 4° C. for 20 minutes. The lyzed cells were then centrifuged at 750×g at 4° C. for 20 minutes, the residue was taken up in incubation buffer, and aliquots of 10^7 cells/ml were prepared. The aliquots were frozen at −80° C. until used.
On the day of the experiment, the cells were thawed, diluted with incubation buffer and homogenized using a Multipette Combitip (Eppendorf, Hamburg). […] The nonspecific binding was determined with 10^−6 M oxytocin (Bachem AG, H2510). Triplicate determinations were set up. Bound and free radioligand were separated by filtration under vacuum with Whatman GF/B glass fiber filters with the aid of a Skatron cell harvester 7000. The bound radioactivity was determined by liquid scintillation measurement in a Tricarb Beta counter, model 2000 or 2200CA (Packard).

Sequence of human vasopressin V1a receptor (P37288 whole entry): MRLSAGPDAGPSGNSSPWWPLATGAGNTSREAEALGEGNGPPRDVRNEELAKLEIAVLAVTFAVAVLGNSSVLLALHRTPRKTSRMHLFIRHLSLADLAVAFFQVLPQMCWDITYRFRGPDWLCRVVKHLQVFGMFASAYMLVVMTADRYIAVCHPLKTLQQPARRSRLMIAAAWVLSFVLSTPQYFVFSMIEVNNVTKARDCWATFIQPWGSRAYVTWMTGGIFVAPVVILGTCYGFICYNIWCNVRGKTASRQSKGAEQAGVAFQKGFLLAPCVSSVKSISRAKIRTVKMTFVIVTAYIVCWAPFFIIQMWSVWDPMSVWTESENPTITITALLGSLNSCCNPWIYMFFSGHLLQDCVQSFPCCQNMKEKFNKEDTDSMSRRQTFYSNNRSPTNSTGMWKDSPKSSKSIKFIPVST

The term microsomal CLint denotes the rate of metabolic loss divided by the concentration. Higher therefore signals faster metabolism. In general, Ki refers to a measure of affinity in units of concentration, obtained from inhibition or displacement. Take `CCOc1ncccc1C1(OC(=O)N2CCN(C3CCN(C)CC3)CC2)C(=O)N(S(=O)(=O)c2ccc(OC)cc2OC)c2ccc(C#N)cc21` (racemic) [Example 1, (±)-5-Cyano-1-[(2,4-dimethoxyphenyl)sulfonyl]-3-(2-ethoxypyridin-3-yl)-2-oxo-2,3-dihydro-1H-indol-3-yl-4-(1-methylpiperidin-4-yl)piperazine-1-carboxylate]: the microsomal CLint at 0.5 μM in data set [1] was 75 to 200 µL/min/mg. Further, the “Ki(h-V1a)/Ki(h-V1b)*” value in data set [2] is reported as “+++ (>75)”. For the same molecule, the Ki in data set [3] is less than 10 nM. In data set [4], the “Ki(h-OT)/Ki(h-V1b)*” value is reported as “+++ (>45)”.

`CCOc1ncccc1C1(OC(=O)N2CCN(C3CCN(C)CC3)CC2)C(=O)N(S(=O)(=O)c2ccccc2OC)c2ccc(C#N)cc21` (racemic) [Example 2, (±)-5-Cyano-3-(2-ethoxypyridin-3-yl)-1-[(2-methoxyphenyl)sulfonyl]-2-oxo-2,3-dihydro-1H-indol-3-yl-4-(1-methylpiperidin-4-yl)piperazine-1-carboxylate] showed an intrinsic metabolic clearance (microsomal CLint) at 0.5 μM in data set [1] of 75 to 200 µL/min/mg. Also, the “Ki(h-V1a)/Ki(h-V1b)*” value in data set [2] is “+++ (>75)”. In addition, the Ki in data set [3] is less than 10 nM. In addition, in data set [4], the “Ki(h-OT)/Ki(h-V1b)*” value is recorded as “+++ (>45)”.

Molecule `CCOc1ncccc1C1(OC(=O)N2CCN(C3CCN(C)CC3)CC2)C(=O)N(S(=O)(=O)c2ccccc2)c2ccc(C#N)cc21` (racemic) [Example 4, (±)-5-Cyano-3-(2-ethoxypyridin-3-yl)-2-oxo-1-(phenylsulfonyl)-2,3-dihydro-1H-indol-3-yl 4-(1-methylpiperidin-4-yl)piperazine-1-carboxylate] returned a microsomal CLint at 0.5 μM in data set [1] of less than 50 µL/min/mg. The “Ki(h-V1a)/Ki(h-V1b)*” value in data set [2] was “+++ (>75)”. Also, the Ki in data set [3] is less than 10 nM. In addition, in data set [4], the “Ki(h-OT)/Ki(h-V1b)*” value is listed as “+++ (>45)”.

Molecule `CCOc1ncccc1C1(OC(=O)N2CCN(C3CCN(C)CC3)CC2)C(=O)N(S(=O)(=O)c2ccc(OC)cc2)c2ccc(C#N)cc21` (racemic) [Example 5, (±)-5-Cyano-3-(2-ethoxypyridin-3-yl)-1-[(4-methoxyphenyl)sulfonyl]-2-oxo-2,3-dihydro-1H-indol-3-yl-4-(1-methylpiperidin-4-yl)piperazine-1-carboxylate] registered a microsomal CLint at 0.5 μM in data set [1] of 75 to 200 µL/min/mg. For the same molecule, the “Ki(h-V1a)/Ki(h-V1b)*” value in data set [2] is reported as “+++ (>75)”. In data set [3], the Ki was less than 10 nM. The “Ki(h-OT)/Ki(h-V1b)*” value in data set [4] is given as “++ (>25-45)”.

As for `CCOc1ncccc1C1(OC(=O)N2CCN(C3CCN(CC)CC3)CC2)C(=O)N(S(=O)(=O)c2ccccc2)c2ccc(C#N)cc21.O=C(O)C(F)(F)F` (racemic) [Example 10, (±)-5-Cyano-3-(2-ethoxypyridin-3-yl)-2-oxo-1-(phenylsulfonyl)-2,3-dihydro-1H-indol-3-yl 4-(1-ethylpiperidin-4-yl)piperazine-1-carboxylate, trifluoroacetic acid salt], the microsomal CLint at 0.5 μM in data set [1] is less than 50 µL/min/mg. Moreover, the “Ki(h-V1a)/Ki(h-V1b)*” value in data set [2] is given as “+++ (>75)”. In data set [3], the Ki is less than 10 nM. In addition, the “Ki(h-OT)/Ki(h-V1b)*” value in data set [4] is recorded as “+++ (>45)”.

Molecule `CCOc1ncccc1C1(OC(=O)N2CCN(C3CCNCC3)CC2)C(=O)N(S(=O)(=O)c2ccc(OC)cc2OC)c2ccc(C#N)cc21` (racemic) [Example 25, (±)-5-Cyano-1-[(2,4-dimethoxyphenyl)sulfonyl]-3-(2-ethoxypyridin-3-yl)-2-oxo-2,3-dihydro-1H-indol-3-yl-4-piperidin-4-ylpiperazine-1-carboxylate as bis(trifluoroacetic acid) salt] yielded a microsomal CLint at 0.5 μM in data set [1] of 50 to 75 µL/min/mg. Besides, the “Ki(h-V1a)/Ki(h-V1b)*” value in data set [2] was “+++ (>75)”. Besides, the Ki in data set [3] is less than 10 nM. In addition, the “Ki(h-OT)/Ki(h-V1b)*” value in data set [4] is “+ (15-25)”.

`CCOc1ncccc1C1(OC(=O)N2CCN(C3CCNCC3)CC2)C(=O)N(S(=O)(=O)c2ccccc2)c2ccc(C#N)cc21` (racemic) [Example 28, (±)-5-Cyano-3-(2-ethoxypyridin-3-yl)-2-oxo-1-(phenylsulfonyl)-2,3-dihydro-1H-indol-3-yl 4-piperidin-4-ylpiperazine-1-carboxylate as bis(trifluoroacetic acid) salt] had an intrinsic metabolic clearance (microsomal CLint) at 0.5 μM in data set [1] of less than 50 µL/min/mg. For the same molecule, the “Ki(h-V1a)/Ki(h-V1b)*” value in data set [2] was “++ (>25-75)”. In addition, the Ki in data set [3] is 10 to 50 nM. Moreover, the “Ki(h-OT)/Ki(h-V1b)*” value in data set [4] was “+++ (>45)”.

Turning to `CCOc1ncccc1C1(OC(=O)N2CCC(N3CCN(C)CC3)CC2)C(=O)N(S(=O)(=O)c2ccccc2OC)c2ccc(C#N)cc21` (racemic) [Example 32, (±)-5-Cyano-3-(2-ethoxypyridin-3-yl)-1-[(2-methoxyphenyl)sulfonyl]-2-oxo-2,3-dihydro-1H-indol-3-yl 4-(4-methylpiperazin-1-yl)piperidine-1-carboxylate], the intrinsic clearance (microsomal CLint) at 0.5 μM in data set [1] fell in the range of 75 to 200 µL/min/mg. In data set [2], the “Ki(h-V1a)/Ki(h-V1b)*” value was “++ (>25-75)”. Further, the Ki in data set [3] was 10 to 50 nM. The “Ki(h-OT)/Ki(h-V1b)*” value in data set [4] is listed as “+++ (>45)”.

In the case of `CCOc1ncccc1C1(OC(=O)N2CCC(N3CCN(C)CC3)CC2)C(=O)N(S(=O)(=O)c2ccc(OC)cc2)c2ccc(C#N)cc21` (racemic) [Example 35, (±)-5-Cyano-3-(2-ethoxypyridin-3-yl)-1-[(4-methoxyphenyl)sulfonyl]-2-oxo-2,3-dihydro-1H-indol-3-yl 4-(4-methylpiperazin-1-yl)piperidine-1-carboxylate], in data set [1], the microsomal CLint at 0.5 μM fell in the range of 75 to 200 µL/min/mg. Moreover, the “Ki(h-V1a)/Ki(h-V1b)*” value in data set [2] was “++ (>25-75)”. Moreover, in data set [3], the Ki is less than 10 nM. For the same molecule, the “Ki(h-OT)/Ki(h-V1b)*” value in data set [4] is “++ (>25-45)”.

`CCOc1ncccc1C1(OC(=O)N2CCC(N3CCN(CC)CC3)CC2)C(=O)N(S(=O)(=O)c2ccc(OC)cc2OC)c2ccc(C#N)cc21` (racemic) [Example 37, (±)-5-Cyano-1-[(2,4-dimethoxyphenyl)sulfonyl]-3-(2-ethoxypyridin-3-yl)-2-oxo-2,3-dihydro-1 H-indol-3-yl-4-(4-ethylpiperazin-1-yl)piperidine-1-carboxylate] showed a microsomal CLint at 0.5 μM in data set [1] of 75 to 200 µL/min/mg. For the same molecule, the “Ki(h-V1a)/Ki(h-V1b)*” value in data set [2] is “+++ (>75)”. Besides, in data set [3], the Ki was less than 10 nM. The “Ki(h-OT)/Ki(h-V1b)*” value in data set [4] is recorded as “+++ (>45)”.

For the molecule `CCOc1ncccc1C1(OC(=O)N2CCC(N3CCN(CC)CC3)CC2)C(=O)N(S(=O)(=O)c2ccccc2)c2ccc(C#N)cc21` (racemic) [Example 40, (±)-5-Cyano-3-(2-ethoxypyridin-3-yl)-2-oxo-1-(phenylsulfonyl)-2,3-dihydro-1H-indol-3-yl 4-(4-ethylpiperazin-1-yl)piperidine-1-carboxylate], the microsomal CLint at 0.5 μM in data set [1] is 50 to 75 µL/min/mg. Moreover, in data set [2], the “Ki(h-V1a)/Ki(h-V1b)*” value is listed as “++ (>25-75)”. Further, in data set [3], the Ki was less than 10 nM. Also, the “Ki(h-OT)/Ki(h-V1b)*” value in data set [4] is on record as “+++ (>45)”.
